Source: ChEMBL document CHEMBL6153138, “Discovery of Novel Aromatic Urea-Imidazole Salt Derivatives for Cancer Therapy via Targeting ERK1/2” (J Med Chem, 2025)

What was measured:
MCF7 = experiment: Antiproliferative activity against human MCF7 cells incubated for 48 hrs by CCK-8 method; format: functional, cell-based; conditions: MCF7, 48 h
4T1 = experiment: Antiproliferative activity against mouse 4T1 cells incubated for 48 hrs by CCK-8 method; format: functional, cell-based; conditions: 4T1, 48 h
MCF-10A = experiment: Antiproliferative activity against human MCF-10A cells incubated for 48 hrs by CCK-8 method; format: functional, cell-based
HCC1937 = experiment: Antiproliferative activity against human HCC1937 cells incubated for 48 hrs by CCK-8 method; format: functional, cell-based; conditions: HCC1937, 48 h
[1] = biological target: Mitogen-activated protein kinase 1 (Homo sapiens, UniProt P28482); experiment: Inhibition of ERK2 (unknown origin) incubated for 60 mins by luminescence based ADP-Glo kinase assay
MDA-MB-468 = experiment: Antiproliferative activity against human MDA-MB-468 cells incubated for 48 hrs by CCK-8 method; format: functional, cell-based; conditions: MDA-MB-468, 48 h

Chain of Mitogen-activated protein kinase 1 (P28482 whole entry): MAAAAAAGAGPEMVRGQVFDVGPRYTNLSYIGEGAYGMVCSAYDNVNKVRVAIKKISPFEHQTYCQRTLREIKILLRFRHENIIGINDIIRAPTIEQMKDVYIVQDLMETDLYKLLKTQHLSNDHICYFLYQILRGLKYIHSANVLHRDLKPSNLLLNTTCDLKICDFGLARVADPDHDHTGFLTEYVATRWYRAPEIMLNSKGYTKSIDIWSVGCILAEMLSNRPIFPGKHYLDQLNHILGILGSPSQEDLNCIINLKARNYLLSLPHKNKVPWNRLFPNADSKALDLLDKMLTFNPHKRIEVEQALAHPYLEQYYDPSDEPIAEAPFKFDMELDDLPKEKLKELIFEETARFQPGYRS

Row | SMILES | IC50 (MCF7) [nM] | IC50 (4T1) [nM] | IC50 (MCF-10A) [nM] | IC50 (HCC1937) [nM] | IC50 [1] [nM] | IC50 (MDA-MB-468) [nM]
1 | Cc1ccc(NC(=O)N[C@@H](Cc2ccccc2)Cn2c[n+](Cc3ccc4ccccc4c3)c3ccccc32)cc1 | 2520 | 6620 | > 10000 | 3620 | 399 | 3690
2 | O=C(Nc1cc(C(F)(F)F)cc(C(F)(F)F)c1)N[C@@H](Cc1ccccc1)Cn1c[n+](Cc2ccccc2F)c2ccccc21 | 2090 | 3130 | 8380 | 1770 | 217 | 1820
3 | O=C(Nc1cc(C(F)(F)F)cc(C(F)(F)F)c1)N[C@@H](Cc1ccccc1)Cn1c[n+](C/C=C/c2ccccc2)c2ccccc21 | 1530 | 5630 | > 10000 | 2410 | 237 | 2440
4 | O=C(Nc1cc(C(F)(F)F)cc(C(F)(F)F)c1)N[C@@H](Cc1ccccc1)Cn1c[n+](Cc2cccc(F)c2)c2ccccc21 | 2430 | 5330 | 9320 | 3170 | 133 | 1710
5 | O=C(Nc1cc(C(F)(F)F)cc(C(F)(F)F)c1)N[C@@H](Cc1ccccc1)Cn1c[n+](Cc2ccc(F)cc2)c2ccccc21 | 2840 | 9670 | > 10000 | 4200 | 294 | 3220
6 | O=C(Nc1cc(C(F)(F)F)cc(C(F)(F)F)c1)N[C@@H](Cc1ccccc1)Cn1c[n+](Cc2ccc(Cl)cc2Cl)c2ccccc21 | 1700 | 4630 | > 10000 | 1540 | 198 | 2150
7 | Cc1ccc(C[n+]2cn(C[C@H](Cc3ccccc3)NC(=O)Nc3cc(C(F)(F)F)cc(C(F)(F)F)c3)c3ccccc32)cc1 | 2990 | 5800 | > 10000 | 1490 | 315 | 2240
8 | Cc1cccc(C[n+]2cn(C[C@H](Cc3ccccc3)NC(=O)Nc3cc(C(F)(F)F)cc(C(F)(F)F)c3)c3ccccc32)c1 | 1700 | 6780 | > 10000 | 3720 | 275 | 2360
9 | O=C(Nc1cc(C(F)(F)F)cc(C(F)(F)F)c1)N[C@@H](Cc1ccccc1)Cn1c[n+](Cc2c(Cl)cccc2Cl)c2ccccc21 | 3150 | 5530 | > 10000 | 2150 | 195 | 3450
10 | N#Cc1ccccc1C[n+]1cn(C[C@H](Cc2ccccc2)NC(=O)Nc2cc(C(F)(F)F)cc(C(F)(F)F)c2)c2ccccc21 | 3840 | 7410 | > 10000 | 5600 | 414 | 3640
11 | O=C(Nc1cc(C(F)(F)F)cc(C(F)(F)F)c1)N[C@@H](Cc1ccccc1)Cn1c[n+](Cc2ccc3cccnc3c2)c2ccccc21 | 1790 | 5290 | 8220 | 1130 | 370 | 1810
12 | N#Cc1cccc(C[n+]2cn(C[C@H](Cc3ccccc3)NC(=O)Nc3cc(C(F)(F)F)cc(C(F)(F)F)c3)c3ccccc32)c1 | 3360 | > 10000 | > 10000 | 5960 | 335 | 5290
13 | O=C(Nc1cc(C(F)(F)F)cc(C(F)(F)F)c1)N[C@@H](Cc1ccccc1)Cn1c[n+](Cc2cccc(C(F)(F)F)c2)c2ccccc21 | 1860 | 7030 | > 10000 | 3480 | 185 | 2340
14 | O=C(Nc1cc(C(F)(F)F)cc(C(F)(F)F)c1)N[C@@H](Cc1ccccc1)Cn1c[n+](Cc2ccccc2Br)c2ccccc21 | 1940 | 3510 | 9250 | 3000 | 236 | 1620
15 | O=C(Nc1cc(C(F)(F)F)cc(C(F)(F)F)c1)N[C@@H](Cc1ccccc1)Cn1c[n+](Cc2ccc(Cl)cc2)c2ccccc21 | 1910 | 4590 | 9780 | 4530 | 319 | 1810
16 | O=C(Nc1ccc(Cl)c(C(F)(F)F)c1)N[C@@H](Cc1ccccc1)Cn1c[n+](Cc2ccc3ccccc3c2)c2ccccc21 | 1590 | > 10000 | > 10000 | 2550 | 244 | 1290
17 | O=C(Nc1cc(C(F)(F)F)cc(C(F)(F)F)c1)N[C@@H](Cc1ccccc1)Cn1c[n+](Cc2ccccc2C(F)(F)F)c2ccccc21 | 1720 | 4970 | 7680 | 2960 | 252 | 1880
18 | O=C(Nc1ccc(F)cc1)N[C@@H](Cc1ccccc1)Cn1c[n+](Cc2ccc3ccccc3c2)c2ccccc21 | 1980 | 8440 | 8750 | 3200 | 394 | 2800

Row | SMILES | IC50 (MCF7) [nM] | IC50 (4T1) [nM] | IC50 (MCF-10A) [nM] | IC50 (HCC1937) [nM] | IC50 [1] [nM] | IC50 (MDA-MB-468) [nM]
19 | O=C(Nc1ccc(Cl)c(Cl)c1)N[C@@H](Cc1ccccc1)Cn1c[n+](Cc2ccc3ccccc3c2)c2ccccc21 | 1550 | 6770 | 9720 | 3370 | 215 | 2450
20 | O=C(Nc1cc(C(F)(F)F)cc(C(F)(F)F)c1)N[C@@H](Cc1ccccc1)Cn1c[n+](Cc2cc(Cl)ccc2Cl)c2ccccc21 | 3250 | 6780 | > 10000 | 2050 | 193 | 2620
21 | Cc1ccccc1C[n+]1cn(C[C@H](Cc2ccccc2)NC(=O)Nc2cc(C(F)(F)F)cc(C(F)(F)F)c2)c2ccccc21 | 2770 | 4830 | > 10000 | 2750 | 123 | 1910
22 | O=C(Nc1ccc(Cl)cc1)N[C@@H](Cc1ccccc1)Cn1c[n+](Cc2ccc3ccccc3c2)c2ccccc21 | 2420 | 7200 | > 10000 | 1710 | 248 | 3020
23 | CC[n+]1cn(C[C@H](Cc2ccccc2)NC(=O)Nc2cc(C(F)(F)F)cc(C(F)(F)F)c2)c2ccccc21 | > 10000 | > 10000 | > 10000 | > 10000 | > 10000 | > 10000
24 | O=C(Nc1cc(C(F)(F)F)cc(C(F)(F)F)c1)N[C@@H](Cc1ccccc1)Cn1c[n+](Cc2cccc(Br)c2)c2ccccc21 | 1800 | 2310 | 8960 | 1690 | 170 | 1580
25 | O=C(Nc1ccc(Br)cc1)N[C@@H](Cc1ccccc1)Cn1c[n+](Cc2ccc3ccccc3c2)c2ccccc21 | 2780 | 6370 | > 10000 | 6560 | 277 | 3050
26 | COc1cccc(C[n+]2cn(C[C@H](Cc3ccccc3)NC(=O)Nc3cc(C(F)(F)F)cc(C(F)(F)F)c3)c3ccccc32)c1 | 1320 | 3540 | > 10000 | 3680 | 247 | 1570
27 | C=CC[n+]1cn(C[C@H](Cc2ccccc2)NC(=O)Nc2cc(C(F)(F)F)cc(C(F)(F)F)c2)c2ccccc21 | > 10000 | > 10000 | > 10000 | > 10000 | > 10000 | > 10000
28 | Cc1cc(C)cc(NC(=O)N[C@@H](Cc2ccccc2)Cn2c[n+](Cc3ccc4ccccc4c3)c3ccccc32)c1 | 2700 | 7820 | > 10000 | 5980 | 327 | 3250
29 | O=C(Nc1cc(C(F)(F)F)cc(C(F)(F)F)c1)N[C@@H](Cc1ccccc1)Cn1c[n+](Cc2cccc(OCc3ccccc3)c2)c2ccccc21 | 3200 | 6890 | > 10000 | 3180 | 280 | 1640
30 | N#Cc1ccc(C[n+]2cn(C[C@H](Cc3ccccc3)NC(=O)Nc3cc(C(F)(F)F)cc(C(F)(F)F)c3)c3ccccc32)cc1 | 5030 | > 10000 | > 10000 | 3820 | 392 | 2660
31 | O=C(Nc1cc(C(F)(F)F)cc(C(F)(F)F)c1)N[C@@H](Cc1ccccc1)Cn1c[n+](Cc2ccc(Br)cc2)c2ccccc21 | 2190 | 6770 | > 10000 | 1820 | 338 | 2220
32 | O=C(Nc1cc(C(F)(F)F)cc(C(F)(F)F)c1)N[C@@H](Cc1ccccc1)Cn1c[n+](Cc2ccc(C(F)(F)F)cc2)c2ccccc21 | 1610 | 5630 | 8120 | 2680 | 223 | 2500
33 | O=C(Nc1ccc(C(F)(F)F)cc1)N[C@@H](Cc1ccccc1)Cn1c[n+](Cc2ccc3ccccc3c2)c2ccccc21 | 1070 | 3720 | > 10000 | 2980 | 217 | 2080
34 | O=C(Nc1cc(C(F)(F)F)cc(C(F)(F)F)c1)N[C@@H](Cc1ccccc1)Cn1c[n+](Cc2cccc(Cl)c2)c2ccccc21 | 2340 | 3680 | > 10000 | 3400 | 166 | 2120
35 | O=C(Nc1cc(C(F)(F)F)cc(C(F)(F)F)c1)N[C@@H](Cc1ccccc1)Cn1c[n+](Cc2ccccc2Cl)c2ccccc21 | 1990 | 3880 | 9180 | 1870 | 235 | 2060
